In patent US8889370B2, “Method of determining inhibitors of coagulation” (Siemens Healthcare Diagnostics Products GmbH, priority 2010, dated 2014):

Experiments:
F Xa [1] = molecular target: T1, F Xa (Homo sapiens, UniProt P00742); conditions: Prasa et al. 1997; Perzborn 2009; read-out: binding constant for F Xa; cited from earlier work
F Xa [2] = molecular target: T1, F Xa; test: LOCI chemiluminescence competition assay for F Xa inhibitors in standard human plasma, ligand B-r-G-R-H; type: binding; set-up: 10 μl of a reagent containing human F Xa (approx. 1000 IU/l); conditions: standard human plasma with increasing inhibitor concentrations, anti-F Xa antibody-coated Chemibeads, FIG. 9
Experimental: The signal-producing system used was the LOCI system according to example 4.
The Chemibeads used herein were additionally coated with a commercially available polyclonal antibody to F Xa. For this, the antibody was linked covalently to the latex particles in a coupling ratio of 10 mg of antibody to […] of particles. The Sensibeads used herein were additionally coated with streptavidin.
The ligand used was the biotinylated peptide aldehyde biotinyl-Ttds-D-Arg-Gly-Arg-H (B-r-G-R—H).
In the absence of an F Xa inhibitor, the ligand binds, via its biotin residue, to the streptavidin-coated Sensibeads and, via its peptide moiety, to the F Xa which itself binds to the antibody-coated Chemibeads, and a chemiluminescence signal is generated (see also FIG. 1).
10 μl of a reagent containing human F Xa (approx. 1000 IU/l) and fibrin polymerization inhibitor peptide glycine-proline-arginine-proline (10 mg/ml) were admixed with 2 μl of sample, 20 μl of Chemibeads (400 μg/ml) and 10 μl of the ligand (6 μM) and incubated for 5 minutes. After addition of 60 μl of Sensibeads (200 μg/ml) and incubation for 10 minutes, the mix was filled with water to 260 μl and the chemiluminescence signal was measured. As FIG. 9 indicates, the chemiluminescence signal is reduced as a function of the type and concentration of the direct F Xa and thrombin inhibitors metered in.

thrombin = thrombin (Homo sapiens, UniProt P00734); set-up: binding constant for thrombin: unit not given here; conditions: cited from earlier work

chemiluminescence signal (F Xa [2]) | Compound | Ki (F Xa [1]) [µM] | binding to thrombin, times more weakly than to F Xa (thrombin; Perzborn 2009) | binding constant for thrombin (thrombin; Prasa et al. 1997)
not reduced | CC1CNc2c(cccc2S(=O)(=O)N[C@@H](CCCNC(=N)N)C(=O)N2CC[C@@H](C)C[C@@H]2C(=O)O)C1 (stereo partly drawn) [argatroban] | 210 |  | 
inversely proportional | O=C(NC[C@H]1CN(c2ccc(N3CCOCC3=O)cc2)C(=O)O1)c1ccc(Cl)s1 [rivaroxaban] |  | up to 10 000 times | 
not reduced | hirudin |  |  | 2.7×10^−14
